Measured values: the OPERA property sets (Mansouri et al. 2018)
Peptide text beside a SMILES is read from it.

| SMILES | logP |
| --- | --- |
| COc1ccc(C(N)=O)cc1 | 0.86 |
| Cc1cnc(C)cn1 | 0.63 |
| CCCCC(N)C(=O)O (stereo not drawn) | -1.53 |
| O=[N+]([O-])c1cc2ccccc2nn1 | 0.73 |
| Cc1cccc(Cl)c1Nc1ccccc1CC(=O)O | 4.37 |
| COC(=O)CC#N | -0.47 |
| CCCCC1(CC)C(=O)NC(=O)NC1=O | 1.73 |
| Nc1ncccn1 | -0.22 |
| OCCc1ccccn1 | 0.12 |
| CCOCCO | -0.32 |
| CCOC(=O)C(SP(=S)(OC)OC)c1ccccc1 (stereo not drawn) | 3.69 |
| COc1ccncc1 | 1 |
| O=C(OC1CCCCC1)n1cc(F)c(=O)[nH]c1=O | 1.42 |
| CN(C)C(=O)Nc1cccc(F)c1 | 1.37 |
| CC(=O)OC[C@H]1O[C@@H](n2ncc(=O)[nH]c2=O)[C@H](OC(C)=O)[C@@H]1OC(C)=O | -0.2 |
| CCN(CC)c1nc(Cl)nc(NC(C)C)n1 | 3.94 |
| COC(=O)c1cccc(C(=O)O)c1 | 1.83 |
| OCCN1CCN(CCC=C2c3ccccc3Sc3ccc(Cl)cc32)CC1 | 4.18 |
| CN(c1ccccn1)S(=O)(=O)c1ccc(N)cc1 | 1.3 |
| CCCCOc1ccc(CC(=O)NO)cc1 | 2.08 |
| Nc1ccc([N+](=O)[O-])cc1N | 0.88 |
| O=C(Nc1ncnc2c1ncn2[C@H]1C[C@H](O)[C@@H](CO)O1)c1ccccc1 | 0.22 |
| C=C(C)C(=O)OC(C)(C)C | 2.54 |
| CCNC | 0.15 |

| SMILES | logP |
| --- | --- |
| CSCC(=O)C=NO | 1.21 |
| COc1ccc(C(=O)O)cc1OC | 1.61 |
| NC(=O)c1ccc(F)cc1 | 0.91 |
| CCCCCn1cnc2c(NC(C)=O)ncnc21 | 0.98 |
| CCC1(c2ccccc2)C(=O)NCNC1=O | 0.91 |
| c1ccc2c(c1)Nc1ccccc1S2 | 4.15 |
| C=C(CC(=O)c1ccc(-c2ccccc2Cl)cc1)C(=O)O | 3.32 |
| CCCCCc1ccncc1 | 3.75 |
| Oc1cc(Cl)cc(Cl)c1 | 3.62 |
| OC[C@@H](O)[C@@H](O)CO | -2.29 |
| CCC1(c2ccccc2)C(=O)NC(=O)N(C)C1=O (stereo not drawn) | 1.84 |
| ClC(Cl)C(c1ccccc1)c1ccccc1 | 4.51 |
| CC(=O)Nc1cnc2ccccc2n1 | 1.53 |
| Cc1cnc2ccccc2c1 | 2.53 |
| CN(C)C(N(C)C)=S(I)c1cccc(Cl)c1 (stereo not drawn) | -0.17 |
| CCCOC/C(=N\c1ccc(Cl)cc1C(F)(F)F)n1ccnc1 | 1.4 |
| FC(F)(F)c1nc2ccc(Cl)cc2[nH]1 | 3.39 |
| COP(=O)(C=C(Cl)Cl)OC | 1.4 |
| COP(=S)(OC)Oc1ccc([N+](=O)[O-])c(C(C)C)c1 | 4.05 |
| NC(=O)c1ccc2[nH]ccc2c1 | 0.87 |
| FC(F)(F)c1nc2c(Br)c(Br)c(Br)c(Br)c2[nH]1 | 4.81 |
| Brc1ccc2[nH]ccc2c1 | 3 |
| Cc1cc(C)c(C)c(C)c1C | 4.56 |
| O=C(O)CNc1ccccc1 | 0.62 |

| SMILES | logP |
| --- | --- |
| CON(C)C(=O)Nc1cccc(O)c1 | 0.83 |
| OCCCF | -0.28 |
| c1ccc2nccnc2c1 | 1.32 |
| COc1cc2c(c(OC)c1O)-c1ccc(OC)c(=O)cc1[C@@H](NC(=O)C(F)(F)F)CC2 | 1.67 |
| CCOC(=O)C(=Cc1cccc(F)c1)C(C)=O | 2.46 |
| Fc1cccc2cccnc12 | 2.19 |
| CN(C)c1ccc2cccnc2c1 | 2.71 |
| Ic1cn[nH]c1 | 1.7 |
| CN(C)C(=O)Nc1cccc(Cl)c1 | 2 |
| NCCCCc1ccccc1 | 2.4 |
| NC(=S)c1ccccc1 | 1.49 |
| COc1cccc(COC(=O)N(C)C)c1 | 2.09 |
| CCNC(=O)NO | -0.76 |
| CC(=O)c1ccc([N+](=O)[O-])cc1 | 1.53 |
| COP(=S)(OC)SCC(=O)N(C)C=O | 1.48 |
| CC(C(c1ccccc1)c1ccccc1)[N+](=O)[O-] (stereo not drawn) | 3.91 |
| N#CCN | -1.37 |
| NC(C(=O)OCn1ncc2c(=O)[nH]cnc21)c1ccccc1 (stereo not drawn) | -0.15 |
| CCOC(=O)OCC | 1.21 |
| CC(=O)N[C@@H](CCC(N)=O)C(=O)N[C@@H](Cc1ccccc1)C(N)=O (Ac-Gln-Phe-NH2) | -1.14 |
| Cc1ccccc1Cl | 3.42 |
| CCCCNC | 1.33 |
| O=C(O)c1cc(O)c(O)c(O)c1 | 0.7 |
| Nc1ncnc2c1ncn2[C@@H]1O[C@@H]2COP(=O)(O)O[C@H]2[C@H]1O | -2.96 |

| SMILES | logP |
| --- | --- |
| CCC(=O)OC1(c2ccccc2)CC(C)N(C)CC1C (stereo not drawn) | 3.13 |
| Cc1c(I)c(=O)n(-c2ccccc2)n1C | 1.27 |
| CCCCCCOc1ccc(S(N)(=O)=O)cc1 | 2.93 |
| FC(F)(F)c1cccc2cccnc12 | 2.5 |
| CC(=O)c1ccsc1 | 1.24 |
| C=CCCC=C | 2.87 |
| CN(C)CC=Cc1ccccc1 | 2.61 |
| COC(=O)CCC(=O)OCC(=O)C1(O)CCC2C3CCC4=CC(=O)CCC4(C)C3C(O)CC21C (stereo not drawn) | 2.6 |
| CCNc1nc(Cl)nc(N(CC)CC)n1 | 3.34 |
| CCC(C)c1cc([N+](=O)[O-])cc(C(C)CC)c1O (stereo not drawn) | 4.8 |
| COc1ccccc1OC(=O)c1ccc(N)cc1O | 2.88 |
| Nc1ccc(C2CCCCC2)cc1 | 3.65 |
| CN(C)N=Nc1ccc(CCCC(=O)O)cc1 | 2.62 |
| O=[N+]([O-])c1ccc(Cl)cc1 | 2.39 |
| COc1cc(CCN)cc(OC)c1Br | 2.03 |
| CCCCCCC(C)(C)c1ccc(C2CC(O)CCC2CCCCO)c(O)c1 (stereo not drawn) | 6.68 |
| NCCc1ccncc1 | -0.01 |
| CN1CCCC1 | 0.92 |
| O=c1c2ccccc2oc2ccccc12 | 3.39 |
| FC(F)Oc1ccccc1 | 2.44 |
| CC(=O)CCCc1ccccc1 | 2.42 |
| CNP(=O)(OC)Oc1ccc(OC)cc1 (stereo not drawn) | 1.06 |
| O=C(Oc1ccccc1)c1ccccc1 | 3.59 |
| CCN(CC)C(=O)N(C)N=O | 1.11 |

| SMILES | logP |
| --- | --- |
| NC(=O)NNC(=O)c1ccccc1 | -0.5 |
| COc1cc(CC(C)N)c(OC)cc1C (stereo not drawn) | 2.24 |
| OCCOc1c(Br)cc(Br)cc1Br | 3.42 |
| COc1ccccc1CO | 1.13 |
| NNC(=O)c1ccccc1N | -0.18 |
| CNC(=O)Oc1ccc(C)cc1 | 1.66 |
| CC(=O)c1cccc(S(I)=C(N(C)C)N(C)C)c1 (stereo not drawn) | -0.88 |
| O=Ic1ccccc1 | -1.61 |
| CN(C)C(N(C)C)=S(I)c1ccc(Cl)c(Cl)c1Cl (stereo not drawn) | 0.95 |
| COc1cc(S(=O)(=O)CCN(C)Cc2ccccc2)cc(OC)c1OC | 2.18 |
| CC(C)[C@@H](N)Cc1ccccc1 | 2.59 |
| Cc1ccc2cccc(C)c2c1 | 4.44 |
| CS(=O)(=O)CCC(N)C(=O)O (stereo not drawn) | -3.1 |
| CCC1(c2ccccc2)C(=O)NC(=O)NC1=O | 1.47 |
| CCc1cccnc1 | 1.66 |
| CCc1nnc(NS(=O)(=O)c2ccc(N)cc2)s1 | 1.01 |
| C1CCOC1 | 0.46 |
| N#CCC(N)=C(C#N)C#N | -0.13 |
| CC(=O)O[C@H]1C[C@H](O[C@H]2[C@@H](O)C[C@H](O[C@H]3[C@@H](O)C[C@H](O[C@H]4CC[C@@]5(C)[C@H](CC[C@@H]6[C@@H]5C[C@@H](O)[C@]5(C)[C@@H](C7=CC(=O)OC7)CC[C@]65O)C4)O[C@@H]3C)O[C@@H]2C)O[C@H](C)[C@H]1O[C@@H]1O[C@H](CO)[C@@H](O)[C@H](O)[C@H]1O | 0.07 |
| Nc1ccc(OC(=O)c2ccc(N)cc2O)cc1 | 2.04 |
| Nc1ncnc2nn[nH]c12 | -0.96 |
| COC(=O)C(C)NC(C)=O (stereo not drawn) | -0.57 |
